The target of one test is T1, JAK2 (Homo sapiens, UniProt O60674, V617F).
T1 construct: their effect on JAK2 protein degradation in SET2 cells; host or cells: SET2 cells (human essential thrombocythemia)
T1 sequence (O60674 whole entry V617F): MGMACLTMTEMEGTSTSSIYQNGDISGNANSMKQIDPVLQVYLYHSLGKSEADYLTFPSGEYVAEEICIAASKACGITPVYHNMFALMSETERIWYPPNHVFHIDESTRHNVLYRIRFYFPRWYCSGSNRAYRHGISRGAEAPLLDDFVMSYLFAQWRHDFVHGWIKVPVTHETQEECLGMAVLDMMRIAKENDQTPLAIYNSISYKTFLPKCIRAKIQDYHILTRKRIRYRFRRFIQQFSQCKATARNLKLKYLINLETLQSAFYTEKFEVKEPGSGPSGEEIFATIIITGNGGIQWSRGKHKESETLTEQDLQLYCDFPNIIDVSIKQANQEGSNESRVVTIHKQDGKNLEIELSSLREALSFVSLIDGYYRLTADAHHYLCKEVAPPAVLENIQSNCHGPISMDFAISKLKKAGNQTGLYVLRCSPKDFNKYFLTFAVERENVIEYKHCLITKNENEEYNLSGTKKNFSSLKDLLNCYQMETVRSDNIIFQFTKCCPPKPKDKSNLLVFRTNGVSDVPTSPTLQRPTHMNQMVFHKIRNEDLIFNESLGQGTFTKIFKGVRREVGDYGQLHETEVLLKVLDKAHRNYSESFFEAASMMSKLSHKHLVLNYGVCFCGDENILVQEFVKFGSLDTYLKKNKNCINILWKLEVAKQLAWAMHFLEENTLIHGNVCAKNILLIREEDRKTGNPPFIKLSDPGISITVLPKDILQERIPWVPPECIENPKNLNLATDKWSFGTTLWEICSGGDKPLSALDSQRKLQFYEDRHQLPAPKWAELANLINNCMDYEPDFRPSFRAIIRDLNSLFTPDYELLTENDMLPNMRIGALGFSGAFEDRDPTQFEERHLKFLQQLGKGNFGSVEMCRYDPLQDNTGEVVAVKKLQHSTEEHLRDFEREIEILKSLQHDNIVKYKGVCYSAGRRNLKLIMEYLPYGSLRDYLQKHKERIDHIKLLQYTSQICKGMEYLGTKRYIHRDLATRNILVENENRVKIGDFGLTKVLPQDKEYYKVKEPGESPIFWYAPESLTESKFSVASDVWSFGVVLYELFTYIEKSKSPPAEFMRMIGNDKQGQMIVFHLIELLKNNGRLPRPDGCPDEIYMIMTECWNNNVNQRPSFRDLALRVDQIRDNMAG
Kind of test: Western blot quantitation of JAK2 degradation in SET2 cells. The format is cell-based. Particulars: 5 μM compound, 8 hours treatment, western blot densitometry vs. DMSO vehicle. As for the experimental part: Example E. Western Blot Analysis of JAK2 Dependent SET2 Cells Treated with Compounds of the Present Disclosure
SET2 cells (DSMZ, catalog number ACC 608) are isolated from a person with human essential thrombocythemia and carry the JAK2 V617F mutation.
SET2 cells were cultured in RPMI culture medium (Gibco, catalog number 11875085) supplemented with 1% penicillin-streptomycin-glutamine (Thermo Fisher Scientific, catalog number 10378016) and 20% fetal bovine serum (Gibco, catalog number 10438034). Cultured cells were maintained at 37° C., 5% CO2 in the incubator.
Approximately 1,000,000 cells/well were added in 6-well plate containing 1.5 ml culture media with specified concentrations of compounds of the present disclosure or DMSO control. Cells were treated with concentrations of 10 uM, 5 uM, 1 uM, and 0.5 uM. Proteasome inhibitor MG-132 (Cell signaling, catalog number 2194) was added at 20 uM to an additional 10 uM compound treatment. The treatment period was 8 hours. After 8 hours, cells were collected in 1.5 mL microcentrifuge tubes. Tubes were centrifuged at 1500 rpm for 5 min. Supernatant was aspirated and samples were washed with 1 mL of cold PBS. The samples were centrifuged again at 1500 rpm for 5 min, supernatant was aspirated. The sample pellets were lysed using 150 μL of 1× lysing buffer (Cell Signaling Technologies—catalog number 9803S) supplemented with 1× Halt™ Protease and Phosphatase Inhibitor Cocktail (Thermo Fisher Scientific—catalog number 78447). Using Pierce™ BCA Protein Assay Kit (Thermo Fisher Scientific—catalog number 23225), protein concentration of the samples were quantitated. After normalizing sample concentration to approximately 20 ug/well, samples were loaded onto 4-12% Tris-glycine gels. Gels were transferred to nitrocellulose membranes using iBlot 2 Dry Blotting System and iBlot™ 2 Transfer Stacks, nitrocellulose (Thermo Fisher Scientific—catalog number IB23001). Following transfer, membranes were blocked with StartingBlock (Thermo Fisher Scientific—catalog number 37543). After 1 hour of blocking membranes, they were probed for JAK2, pSTAT5, STAT5, CRBN, and GAPDH (Cell Signaling—catalog numbers 3230, 4322, 25656, 71810, and 5174 respectively).
Compounds of the present disclosure were screened at various concentrations to determine their effect on JAK2 protein degradation in SET2 cells, using methods as described above. DMSO was used as the vehicle control with no PROTAC® added. Co-administration of 20 μM of the proteasome inhibitor MG-132 with the PROTAC® compound at its highest concentration (i.e., 5 or 10 μM) tested was conducted to support the hypothesis that the degradation was driven by the ubiquitin-proteosome system (UPS). Degradation was evaluated by western blot densitometry quantitation using the FluorChem M instrument software to analyze the intensity of the JAK2 band signal at various concentrations of PROTAC® compound vs. the JAK2 band signal of the DMSO vehicle. It is noted that ˜82% of JAK2 exists as the V617F mutant, with the remaining 18% of JAK2 being WT. Therefore, if the V617F mutant JAK2 is selectively degraded over the WT, the maximum degradation is ˜80%. Degradation was graded as A: […]; B: ≥40% to <60% degradation; C: ≥20% to <40% degradation, D: <20% to ≥10%; E<10%. ** refers to degradation at 0.5 μM.
`COC(=O)N[C@@H]1CC[C@@H](n2c(=O)n(C)c3cnc4[nH]c(-c5ccc(C(=O)N6CCC(C(=O)N7CCN(c8cccc9c8C(=O)N(C8CCC(=O)NC8=O)C9=O)CC7)CC6)cc5)c(-c5ccc6c(cnn6C(C)C)c5)c4c32)C1` (stereo partly drawn) [Example 37, methyl ((1R,3R)-3-(7-(4-(4-(4-(2-(2,6-dioxopiperidin-3-yl)-1,3-dioxoisoindolin-4-yl)piperazine-1-carbonyl)piperidine-1-carbonyl)phenyl)-8-(1-isopropyl-1H-indazol-5-yl)-3-methyl-2-oxo-3,6-dihydroimidazo[4,5-d]pyrrolo[2,3-b]pyridin-1(2H)-yl)cyclopentyl) carbamate]: the “JAK2 % Degradation in SET2” value is recorded as “C (C: ≥20% to <40% degradation)”.

Take `COC(=O)N[C@@H]1CC[C@@H](n2c(=O)n(C)c3cnc4[nH]c(-c5ccc(C(=O)N6CCN(CC7CCN(c8cccc9c8C(=O)N(C8CCC(=O)NC8=O)C9=O)CC7)CC6)cc5)c(-c5ccc6c(cnn6C(C)C)c5)c4c32)C1` (stereo partly drawn) [Example 38, methyl ((1R,3R)-3-(7-(4-(4-((1-(2-(2,6-dioxopiperidin-3-yl)-1,3-dioxoisoindolin-4-yl)piperidin-4-yl)methyl)piperazine-1-carbonyl)phenyl)-8-(1-isopropyl-1H-indazol-5-yl)-3-methyl-2-oxo-3,6-dihydroimidazo[4,5-d]pyrrolo[2,3-b]pyridin-1(2H)-yl)cyclopentyl) carbamate]: the “JAK2 % Degradation in SET2” value is “A (A: ≥600% degradation)”.

With `COC(=O)N[C@@H]1CC[C@@H](n2c(=O)n(C)c3cnc4[nH]c(-c5cnn(CC(=O)N6CCC(CN7CCN(c8cccc9c8C(=O)N(C8CCC(=O)NC8=O)C9=O)CC7)CC6)c5)c(-c5ccc6c(cnn6C(C)C)c5)c4c32)C1` (stereo partly drawn) [Example 40, methyl ((1R,3R)-3-(7-(1-(2-(4-((4-(2-(2,6-dioxopiperidin-3-yl)-1,3-dioxoisoindolin-4-yl)piperazin-1-yl)methyl)piperidin-1-yl)-2-oxoethyl)-1H-pyrazol-4-yl)-8-(1-isopropyl-1H-indazol-5-yl)-3-methyl-2-oxo-3,6-dihydroimidazo[4,5-d]pyrrolo[2,3-b]pyridin-1(2H)-yl)cyclopentyl) carbamate], the “JAK2 % Degradation in SET2” value is on record as “C (C: ≥20% to <40% degradation)”. As to `COC(=O)N[C@@H]1CC[C@@H](n2c(=O)n(C)c3cnc4[nH]c(-c5cnn(CC(=O)N6CCC(CN7CCN(c8ccc9c(c8)CN(C8CCC(=O)NC8=O)C9=O)CC7)CC6)c5)c(-c5ccc6c(cnn6C(C)C)c5)c4c32)C1` (stereo partly drawn) [Example 41, methyl ((1R,3R)-3-(7-(1-(2-(4-((4-(2-(2,6-dioxopiperidin-3-yl)-1-oxoisoindolin-5-yl)piperazin-1-yl)methyl)piperidin-1-yl)-2-oxoethyl)-1H-pyrazol-4-yl)-8-(1-isopropyl-1H-indazol-5-yl)-3-methyl-2-oxo-3,6-dihydroimidazo[4,5-d]pyrrolo[2,3-b]pyridin-1(2H)-yl)cyclopentyl) carbamate], the “JAK2 % Degradation in SET2” value is recorded as “C (C: ≥20% to <40% degradation)”. The same measure, in the same setting: in the case of `COC(=O)N[C@@H]1CC[C@@H](n2c(=O)n(C)c3cnc4[nH]c(-c5ccc(CN6CCN(CC7CCN(c8cccc9c8C(=O)N(C8CCC(=O)NC8=O)C9=O)CC7)CC6)cc5)c(-c5ccc6c(cnn6C(C)C)c5)c4c32)C1` (stereo partly drawn) [Example 42, Methyl((1R,3R)-3-(7-(4-((4-((1-(2-(2,6-dioxopiperidin-3-yl)-1,3-dioxoisoindolin-4-yl)piperidin-4-yl)methyl)piperazin-1-yl)methyl)phenyl)-8-(1-isopropyl-1H-indazol-5-yl)-3-methyl-2-oxo-3,6-dihydroimidazo[4,5-d]pyrrolo[2,3-b]pyridin-1(2H)-yl)cyclopentyl)carbamate] it was “A (A: ≥600% degradation)”. As for `COC(=O)N[C@@H]1CC[C@@H](n2c(=O)n(C)c3cnc4[nH]c(-c5ccc(CN6CCC(CN7CCN(c8ccc9c(c8)CN(C8CCC(=O)NC8=O)C9=O)CC7)CC6)cc5)c(-c5ccc6c(cnn6C(C)C)c5)c4c32)C1` (stereo partly drawn) [Example 43, Methyl((1R,3R)-3-(7-(4-((4-((4-(2-(2,6-dioxopiperidin-3-yl)-1-oxoisoindolin-5-yl)piperazin-1-yl)methyl)piperidin-1-yl)methyl)phenyl)-8-(1-isopropyl-1H-indazol-5-yl)-3-methyl-2-oxo-3,6-dihydroimidazo[4,5-d]pyrrolo[2,3-b]pyridin-1(2H)-yl)cyclopentyl)carbamate], the “JAK2 % Degradation in SET2” value was “A (A: ≥600% degradation)”.

Take `COC(=O)N[C@@H]1CC[C@@H](n2c(=O)n(C)c3cnc4[nH]c(-c5ccc(CN6CCC(CN7CCN(c8cccc9c8C(=O)N(C8CCC(=O)NC8=O)C9=O)CC7)CC6)cc5)c(-c5ccc6c(cnn6C(C)C)c5)c4c32)C1` (stereo partly drawn) [Example 44, Methyl((1R,3R)-3-(7-(4-((4-((4-(2-(2,6-dioxopiperidin-3-yl)-1,3-dioxoisoindolin-4-yl)piperazin-1-yl)methyl)piperidin-1-yl)methyl)phenyl)-8-(1-isopropyl-1H-indazol-5-yl)-3-methyl-2-oxo-3,6-dihydroimidazo[4,5-d]pyrrolo[2,3-b]pyridin-1(2H)-yl)cyclopentyl)carbamate]: the “JAK2 % Degradation in SET2” value was “C (C: ≥20% to <40% degradation)”.

Staying with this test, now noted: 10 μM compound, 8 hours treatment, western blot densitometry vs. DMSO vehicle.
For `COC(=O)N[C@@H]1CC[C@@H](n2c(=O)n(C)c3cnc4[nH]c(-c5ccc(C(=O)N6CCC(CN7CCN(c8ccc9c(c8)CN(C8CCC(=O)NC8=O)C9=O)CC7)CC6)cc5)c(-c5ccc6c(cnn6C(C)C)c5)c4c32)C1` (stereo partly drawn) [Example 35, methyl ((1R,3R)-3-(7-(4-(4-((4-(2-(2,6-dioxopiperidin-3-yl)-1-oxoisoindolin-5-yl)piperazin-1-yl)methyl)piperidine-1-carbonyl)phenyl)-8-(1-isopropyl-1H-indazol-5-yl)-3-methyl-2-oxo-3,6-dihydroimidazo[4,5-d]pyrrolo[2,3-b]pyridin-1(2H)-yl)cyclopentyl) carbamate], the “JAK2 % Degradation in SET2” value is given as “A (A: ≥600% degradation)”.

Turning to `COC(=O)N[C@@H]1CC[C@@H](n2c(=O)n(C)c3cnc4[nH]c(-c5ccc(C(=O)N6CCC(CN7CCN(c8ccc9c(c8)CN(C8CCC(=O)NC8=O)C9=O)CC7)CC6)c(F)c5)c(-c5ccc6c(cnn6C(C)C)c5)c4c32)C1` (stereo partly drawn) [Example 36, methyl ((1R,3R)-3-(7-(4-(4-((4-(2-(2,6-dioxopiperidin-3-yl)-1-oxoisoindolin-5-yl)piperazin-1-yl)methyl)piperidine-1-carbonyl)-3-fluorophenyl)-8-(1-isopropyl-1H-indazol-5-yl)-3-methyl-2-oxo-3,6-dihydroimidazo[4,5-d]pyrrolo[2,3-b]pyridin-1(2H)-yl)cyclopentyl) carbamate], the “JAK2 % Degradation in SET2” value is “A (A: ≥600% degradation)”. For the molecule `CN[C@@H](C)C(=O)N[C@H](C(=O)N1C[C@@H](NC(=O)CC2CCN(C(=O)c3ccc(-c4[nH]c5ncc6c(c5c4-c4ccc5c(cnn5C(C)C)c4)n([C@@H]4CC[C@@H](NC(=O)OC)C4)c(=O)n6C)cc3F)CC2)C[C@H]1C(=O)N[C@@H]1CCCc2ccccc21)C1CCCCC1` [Example 46, Methyl((1R,3R)-3-(7-(4-(4-(2-(((3S,5S)-1-((S)-2-cyclohexyl-2-((S)-2-(methylamino)propanamido)acetyl)-5-(((R)-1,2,3,4-tetrahydronaphthalen-1-yl)carbamoyl)pyrrolidin-3-yl)amino)-2-oxoethyl)piperidine-1-carbonyl)-3-fluorophenyl)-8-(1-isopropyl-1H-indazol-5-yl)-3-methyl-2-oxo-3,6-dihydroimidazo[4,5-d]pyrrolo[2,3-b]pyridin-1(2H)-yl)cyclopentyl)carbamate], the “JAK2 % Degradation in SET2” value is “D (D: <20% to ≥10%)”.

(Values after patent publication US20250092043A1, “Kinase Inhibitors and Degraders” (Incyte Corporation, priority 2023, published 2025).)
